Earlier results as cited in paper PMC8623647 (Pharmaceuticals, 2021).

System: MAO-B
Design: method as in PMID 30915862
Conditions: study of Shalaby et al. ref 25; cited from earlier work

In the case of `CSc1ccc(C(=O)/C=C/c2cccc(Br)c2)cc1` [(E)-3-(3-bromophenyl)-1-(4-(methylthio)phenyl)prop-2-en-1-one], the IC50 is given as 190 ± 10 nM.
